According to patent US8648116B2, “Derivatives of N-(arylamino) sulfonamides including polymorphs as inhibitors of MEK as well as compositions, methods of use and methods for preparing the same” (Ardea Biosciences, Inc., priority 2005, dated 2014):
Like-named read-outs stand apart in the source and are kept apart here. Marks after values point to notes of the source that are not given here.

What was measured:
[1] = system: BxPC3 pancreatic adenocarcinoma cells; assay: Anchorage-dependent growth inhibition (ATP content, 48 hr); format: cell-based, human; details: BxPC3, 48 hr
[2] = system: gastric adenocarcinoma AGS cells; assay: Cell proliferation assay (CellTiterGlo, 3 days and 6 days); format: cell-based, human; details: 3 days and 6 days exposure
Description: Human gastric adenocarcinoma AGS cells were obtained from ATCC (Manassas, Va.). […] For cell proliferation experiments, cells were plated in white 96-well plates with clear bases at 3000 cells/100 μl/well. […] The ATP level for each dose was determined in triplicate using independent wells.

A375 melanoma tumors = assay: Anti-tumor xenograft activity, TGI and TGD (Example 94); format: in vivo, nu/nu mice
Description: (§1) Human tumors were implanted in nu/nu mice. Compound A was administered orally for 14 days once tumors were approximately 100 mm^3 in size. Tumor growth inhibition (TGI) was determined after 14 days of treatment as the reduction in the size of tumors in treated groups versus vehicle controls. The time to endpoint (TTE) was calculated as the time for the tumor to reach the specified endpoint volume or the last day of the study, whichever came first. Treatment outcome was determined from percent tumor growth delay (% TGD), defined as the percent increase in median TTE of treated versus vehicle-treated control mice. Animals were also monitored for regression responses. Levels of pERK in tumors and brain were determined by Western blots and correlated with plasma levels of Compound A for the pharmacodynamic/pharmacokinetic study. A number of tumor models were evaluated with different doses and dosing regimens. […] The effect of different dosing regimens was evaluated in A375 xenografts.
(§2) Female nu/nu mice were implanted with A375 Melanoma, Colo205 Colon Tumor, A431 Epidermoid Tumor or HT-29 Colon Tumor cells, which were allowed to grow to 100-200 mm^3. Compound A or vehicle was administered orally (25 mg/kg, 50 mg/kg or 100 mg/kg), once a day, for 14 days.
Tumor Growth Inhibition for the groups treated with 25 mg/kg Compound A were calculated for the indicated tumor xenografts. Tumor Growth Inhibition was measured at the end of once daily dosing for 14 days and calculated according to:
Female nu/nu mice were implanted with A375 tumor cells, which were allowed to grow to 100-200 mm^3. Compound. […] Tumor Growth Inhibition was measured at the end of once daily dosing for 14 days and calculated according to: […]

[3] = Concentration-time profiles after a single dose of capsules; parameters: species or system human cancer patients; details: human, in vivo, oral, capsules of example 95A, Day 1; for AUC(0-t): read-out: AUC0-12hr
Description: Human cancer patients were administered a single dose of the 1 mg or 10 mg capsule composition described above in example 95A. For a 2 mg dose, patients were given 2×1 mg capsules; for a 4 mg dose, patients were given 4×1 mg capsules; for a 6 mg dose, patients were given 6×1 mg capsules; for a 10 mg dose, patients were given 1×10 mg capsule; for a 20 mg dose, patients were given 2×10 mg capsules.
The concentration-time profiles were monitored and are shown in FIG. 4 and in the table below: […]

A431 epidermoid tumors = assay: Anti-tumor xenograft activity, TGI and TGD (Example 94); format: in vivo, nu/nu mice
Description: as §1, §2
(§3) Tumor Growth Inhibition for the groups treated with 25 mg/kg Compound A were calculated for the indicated tumor xenografts. Tumor Growth Inhibition was measured at the end of once daily dosing for 14 days and calculated according to: […]

[4] = system: Colo205 colon cancer tumors; assay: as above; format: in vivo, nu/nu mice
Description: as §1, §2, §3

[5] = Concentration-time profiles after a single dose of capsules; parameters: species or system human cancer patients; details: human, in vivo, oral, capsules of example 95A
[6] = system: COLO 205 human colon carcinoma xenografts; assay: Activity against subcutaneous COLO 205 xenografts (Example 118)
Description: Dosing solutions of Compound A were prepared fresh daily by dissolving the required amount of compound in 100% Cremophor EL, and then diluting ten-fold with normal saline. Final dosing solution concentrations were 2.5, 5, 10, or 20 mg/mL, in order to provide respective doses of 25, 50, 100 or 200 mg/kg in a dosing volume of 10 mL/kg. Paclitaxel (Natural Pharmaceuticals, Inc.) was prepared fresh on each day of dosing in a vehicle consisting of 5% ethanol and 5% Cremophor EL in 90% D5W (5% EC vehicle).
Group 1 received the formulation vehicle (10% Cremophor EL in saline), and served as the tumor growth control group. Group 2 received the reference drug paclitaxel administered on its optimal schedule in nude mice (30 mg/kg i.v. qod×5). […] All doses were scaled to the weight of the animal (0.2 mL per 20 grams body weight).
Tumors were measured twice each week using calipers. […] Therefore endpoint tumor size of 800 mm^3 was used for analysis of tumor growth delay (TGD).
[formula] where b is the intercept and m is the slope of the line obtained by linear regression of a log-transformed tumor growth data set.

[7] = Group 3, 50 mg/kg po qd × 14 per the 39th table (25 mg/kg p.o. qd×14), n=9
[8] = Group 4, 25 mg/kg po bid × 14 first day 1 dose per the 39th table (50 mg/kg p.o. qd×14), n=9
[9] = Group 5, 25 mg/kg po qd × 14 per the 39th table (100 mg/kg p.o. qd×14), n=9
[10] = Group 6, 12.5 mg/kg po bid × 14 first day 1 dose per the 39th table (200 mg/kg p.o., discontinued after six days), n=9

COc1cc(F)c(F)c(Nc2ccc(I)cc2F)c1NS(=O)(=O)C1(C[C@H](O)CO)CC1
GI50 [1]: > 1 µM | proliferation of AGS cell line [2]: inhibits the proliferation

COc1cc(F)c(F)c(Nc2ccc(I)cc2F)c1NS(=O)(=O)C1(C[C@H](O)CO)CC1 [Compound A]
% TGI (A375 melanoma tumors; A375 Melanoma xenograft, 25 mg/kg QD oral, 14 days, range from 2 separate studies): 52-72** % | % TGD, significance (A375 melanoma tumors; A375 melanoma tumors, 25 or 50 mg/kg once daily (QD)): statistically significant | % TGI (A375 melanoma tumors; A375 xenografts, 12.5 mg/kg BID): 79.5% | % TGI (A375 melanoma tumors; A375 xenografts, 25 mg/kg BID): 110.1% | % TGD (A375 melanoma tumors; A375 xenografts, 25 mg/kg QD): 143% | % TGI (A375 melanoma tumors; A375 xenografts, 25 mg/kg QD): 51.7% | % TGD (A375 melanoma tumors; A375 xenografts, 50 mg/kg QD): 233% | % TGI (A375 melanoma tumors; A375 xenografts, 50 mg/kg QD): 69.9% | % TGD (A375 melanoma tumors; A375 xenografts, 100 mg/kg orally once every two days): 91% | Cmax ([3]; 2 mg, 2 mg dose): 0.111 ng/mL | Tmax ([3]; 2 mg, 2 mg dose): 2 h | Cmax ([3]; 4 mg, 4 mg dose): 0.292 ng/mL | AUC(0-t) ([3]; 2 mg dose): 0.7 ng·h/mL | AUC(0-t) ([3]; 4 mg dose): 2.26 ng·h/mL | % TGI (A431 epidermoid tumors; A431 Epidermoid xenograft, 25 mg/kg QD oral, 14 days): 67% | % TGD, significance (A431 epidermoid tumors; A431 epidermoid tumors, 25 or 50 mg/kg once daily (QD)): statistically significant | % TGI ([4]; Colo205 Colon xenograft, 25 mg/kg QD oral, 14 days, range from 2 separate studies): 70-123** % | % TGD, significance ([4]; Colo205 colon cancer tumors, 25 or 50 mg/kg once daily (QD)): statistically significant | Cmax ([5]; 2 mg, 2 mg dose, Day 35): 0.202 ng/mL | Tmax ([5]; 2 mg, 2 mg dose, Day 35): 2 h | Tmax ([5]; 4 mg, 4 mg dose, Day 1): 1.5 h | Cmax ([5]; 4 mg, 4 mg dose, Day 35): 0.544 ng/mL | Tmax ([5]; 4 mg, 4 mg dose, Day 35): 1 h | Cmax ([5]; 10 mg, 10 mg dose, Day 35): 1.57 ng/mL | Cmax ([5]; 20 mg, 20 mg dose, Day 35): 3.28 ng/mL | AUC ([5]; 2 mg dose, Day 35): 2.07 ng·h/mL | AUC ([5]; 4 mg dose, Day 35): 5.12 ng·h/mL | AUC ([5]; 10 mg dose, Day 35): 14.3 ng·h/mL | AUC ([5]; 20 mg dose, Day 35): 29.5 ng·h/mL | TGD ([6]; 25 mg/kg p.o. qd×14): 3% | TGD ([6]; 50 mg/kg p.o. qd×14): 46% | TGD ([6]; 100 mg/kg p.o. qd×14): maximum TGD possible | relation to the MTD ([6]; 200 mg/kg p.o. once daily): above the MTD | TR deaths ([6]; 200 mg/kg p.o., dosing stopped after Day 6): 3/9 | Median TTE ([6]; Group 3, 25 mg/kg p.o. qd×14): 47.9 days | % TGD [6, 7]: 17% | MTV (n) Day 74 [6, 7]: 0 (3) | Median TTE [6, 7]: 47.9 days | No of CR [6, 7]: 0 | No of NTR (non-treatment-related deaths) [6, 7]: 2 | No of PR [6, 7]: 1 | No of TFS [6, 7]: 0 | No of TR (treatment-related deaths) [6, 7]: 2 | SS (statistical significance, logrank vs Group 1) [6, 7]: ns | T − C [6, 7]: 6.9 days | % TGD [6, 8]: 44% | MTV (n) Day 74 [6, 8]: 195 (1) | Median TTE [6, 8]: 59.1 days | No of CR [6, 8]: 0 | No of NTR (non-treatment-related deaths) [6, 8]: 0 | No of PR [6, 8]: 4 | No of TFS [6, 8]: 0 | No of TR (treatment-related deaths) [6, 8]: 0 | SS (statistical significance, logrank vs Group 1) [6, 8]: ns | T − C [6, 8]: 18.1 days | Median TTE ([6]; Group 4, 50 mg/kg p.o. qd×14): 59.1 days | % TGD [6, 9]: 80% | MTV (n) Day 74 [6, 9]: 320 (5) | Median TTE [6, 9]: 74.0 days | No of CR [6, 9]: 0 | No of NTR (non-treatment-related deaths) [6, 9]: 0 | No of PR [6, 9]: 4 | No of TFS [6, 9]: 0 | No of TR (treatment-related deaths) [6, 9]: 1 | SS (statistical significance, logrank vs Group 1) [6, 9]: ns | T − C [6, 9]: 33.0 days | Median TTE ([6]; Group 5, 100 mg/kg p.o. qd×14): 74.0 days | % TGD [6, 10]: 41% | MTV (n) Day 74 [6, 10]: 0 (3) | Median TTE [6, 10]: 57.8 days | No of CR [6, 10]: 3 | No of NTR (non-treatment-related deaths) [6, 10]: 2 | No of PR [6, 10]: 1 | No of TFS [6, 10]: 0 | No of TR (treatment-related deaths) [6, 10]: 2 | T − C [6, 10]: 16.8 days
